The source of these data is paper PMC12214875 (Molecular Cancer Therapeutics, 2025).

Experiment [1] concerns the target T1, KIT V559D/V654A (Homo sapiens, UniProt P10721, V559D/V654A).
T1 construct: KIT (554-976) Exon 13/14 ATP pocket; purchased Reaction Biology Corp. (contract assay service)
The experiment is described as follows: Biochemical kinase assay (radioactive, Reaction Biology). Conditions: average of two independent experiments.

The target of experiment [2] is T2, KIT D820Y (Homo sapiens, UniProt P10721, D820Y).
T2 construct: purchased Reaction Biology Corp. (contract assay service)
T2 sequence (P10721 544-976 D820Y): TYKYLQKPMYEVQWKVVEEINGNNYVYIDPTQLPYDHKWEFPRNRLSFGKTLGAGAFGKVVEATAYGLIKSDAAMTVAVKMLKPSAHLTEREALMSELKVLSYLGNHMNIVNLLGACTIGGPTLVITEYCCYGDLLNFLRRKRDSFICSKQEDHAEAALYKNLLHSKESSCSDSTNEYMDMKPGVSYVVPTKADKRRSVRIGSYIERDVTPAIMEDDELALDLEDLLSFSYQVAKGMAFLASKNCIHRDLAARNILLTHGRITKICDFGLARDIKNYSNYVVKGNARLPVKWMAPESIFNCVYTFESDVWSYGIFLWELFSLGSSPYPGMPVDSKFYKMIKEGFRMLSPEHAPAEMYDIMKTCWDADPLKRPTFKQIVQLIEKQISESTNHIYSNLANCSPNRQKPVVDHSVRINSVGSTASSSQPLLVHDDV
The description is as above. Conditions: average of two independent experiments.

In experiment [3] the test system is MOLM-13 cells (FLT3-ITD). The experiment is described as follows: MOLM-13 viability. The note with it: FLT3-ITD-mutated cell line; read-out: M4205 IC50, MOLM-13 viability. It is filed as cell-based. The text has this: GIST430, GIST430/654, and GIST48B (RRID: CVCL_M441) cell lines were obtained under a nonexclusive research license agreement for non-patented material from the Brigham and Women’s Hospital, Harvard Medical School, Boston, MA. […] The Kasumi-1 cell line (RRID: CVCL_0589) and the MOLM-13 cell line (RRID: CVCL_2119) were acquired from DSMZ and grown in RPMI-1640 medium supplemented with 20% FCS. Mv-4-11 cells (RRID: CVCL_0064) were obtained from ATCC and cultured in Iscove’s modified Dulbecco’s medium containing 10% FCS. THP-1 cells (RRID: CVCL_0006) were obtained from ATCC and cultured in RPMI-1640 medium supplemented with 10% FCS. All cell lines were only used at up to 30 passages and were not cultured longer than 4 months. Quality control analyses including confirmation of the absence of Mycoplasma infection, identity testing by short tandem repeat analysis, and confirmation of […] were regularly performed.

In experiment [4] the test system is GIST48B cells. Briefly: Cellular viability assay (resazurin, 7 days). The class given is cell-based. (In general: Resazurin is reduced to fluorescent resorufin, in cell work by metabolically active cells.)
Experiment [5] has as its target T3, KIT V560G/D816V (Homo sapiens, UniProt P10721, D816V/V560G).
T3 construct: purchased Reaction Biology Corp. (contract assay service)
The experiment is described as follows: Biochemical kinase assay (radioactive, Reaction Biology). Conditions: average of two independent experiments.

Experiment [6] has as its target PDGFRA (Homo sapiens, UniProt P16234). The experiment is described as follows: HotSpot kinase profiling panel (398 kinases). It is filed as biochemical. Conditions: 1 μmol/L, single-dose singlicate. Here is the method:
In vitro kinase assays with radioactive assay formats were performed at Reaction Biology Corp. according to their standard protocols. […] IC50 values for KIT-mutant kinases and for FLT3 and VEGFR2 (KDR) were determined with dose–response curves using a 10-dose threefold serial dilution in duplicates. Fitting of dose–response curves and calculation of IC50 values were performed with sigmoidal dose–response equations using GraphPad Prism software (RRID: SCR_002798; version 8).

The target in experiment [7] is KIT V559D (Homo sapiens, UniProt P10721, V559D). The experiment is described as follows: Biochemical kinase assay (radioactive, Reaction Biology). Also noted: KIT (554-976) Exon JM domain; purchased Reaction Biology Corp. (contract assay service). Conditions: average of two independent experiments.
Chain of KIT V559D (P10721 554-976 V559D): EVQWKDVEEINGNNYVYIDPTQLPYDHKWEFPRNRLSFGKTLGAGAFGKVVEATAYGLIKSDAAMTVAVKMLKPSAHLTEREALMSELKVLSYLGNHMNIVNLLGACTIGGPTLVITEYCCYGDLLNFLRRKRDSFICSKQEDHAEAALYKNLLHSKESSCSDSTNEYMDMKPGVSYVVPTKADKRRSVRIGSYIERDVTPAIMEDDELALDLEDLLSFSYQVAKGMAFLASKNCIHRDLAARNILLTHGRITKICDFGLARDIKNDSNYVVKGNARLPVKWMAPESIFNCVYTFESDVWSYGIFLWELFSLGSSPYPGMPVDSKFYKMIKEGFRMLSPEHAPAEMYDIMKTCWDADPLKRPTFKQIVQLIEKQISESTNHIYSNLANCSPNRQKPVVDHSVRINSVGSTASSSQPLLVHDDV
Experiment [8] relates to MV-4-11 (FLT3-ITD). Briefly: Cell line viability screen (CellTiter-Glo, 6 days). The note with it: MV-4-11; 6 days; normalized to time zero; read-out: GI50. The class given is cell-based. As for the experimental part: (§1) A cell line viability screen was performed at Horizon Discovery using 320 cancer cell lines across 18 different tissue types (breast, 24; colorectal, 33; endometrium, 14; esophagus, 7; head and neck, 19; kidney, 7; leukemia, 15; liver, 26; lung, 56; lymphoma, 31; myeloma, 10; ovary, 25; pancreas, 14; prostate, 3; skin, 15; soft tissue, 2; stomach, 17; and urinary, 2). Cells were thawed from a liquid nitrogen–preserved state and once cells divided at their expected doubling times, the cells were seeded in black 384-well tissue culture–treated plates. […] […]. After treatment, endpoint analysis was performed using CellTiter-Glo 2.0 and concentrations leading to a half-maximal growth inhibition normalized to time zero state (GI50) were calculated using proprietary software of Horizon Discovery.
(§2) Cell line Driver Alteration M4205 GI50 [nM]
(§3) days. Cellular viability was measured using CellTiter-Glo 2.0 (Promega) at the time of treatment
(§4) (time zero) and after 6 days. […]
On the technique in general: In ATP-based viability assays light output follows the ATP content of the culture.

Experiment [9] concerns MOLM-13 (FLT3-ITD). Briefly: Cell line viability screen (CellTiter-Glo, 6 days). It is filed as cell-based. The note with it: MOLM-13; 6 days; normalized to time zero; read-out: GI50. As for the experimental part: as §1, §2, §3, §4

Read-outs that look alike come from different tables or passages of the source.

Chain of PDGFRA (P16234 24-1089): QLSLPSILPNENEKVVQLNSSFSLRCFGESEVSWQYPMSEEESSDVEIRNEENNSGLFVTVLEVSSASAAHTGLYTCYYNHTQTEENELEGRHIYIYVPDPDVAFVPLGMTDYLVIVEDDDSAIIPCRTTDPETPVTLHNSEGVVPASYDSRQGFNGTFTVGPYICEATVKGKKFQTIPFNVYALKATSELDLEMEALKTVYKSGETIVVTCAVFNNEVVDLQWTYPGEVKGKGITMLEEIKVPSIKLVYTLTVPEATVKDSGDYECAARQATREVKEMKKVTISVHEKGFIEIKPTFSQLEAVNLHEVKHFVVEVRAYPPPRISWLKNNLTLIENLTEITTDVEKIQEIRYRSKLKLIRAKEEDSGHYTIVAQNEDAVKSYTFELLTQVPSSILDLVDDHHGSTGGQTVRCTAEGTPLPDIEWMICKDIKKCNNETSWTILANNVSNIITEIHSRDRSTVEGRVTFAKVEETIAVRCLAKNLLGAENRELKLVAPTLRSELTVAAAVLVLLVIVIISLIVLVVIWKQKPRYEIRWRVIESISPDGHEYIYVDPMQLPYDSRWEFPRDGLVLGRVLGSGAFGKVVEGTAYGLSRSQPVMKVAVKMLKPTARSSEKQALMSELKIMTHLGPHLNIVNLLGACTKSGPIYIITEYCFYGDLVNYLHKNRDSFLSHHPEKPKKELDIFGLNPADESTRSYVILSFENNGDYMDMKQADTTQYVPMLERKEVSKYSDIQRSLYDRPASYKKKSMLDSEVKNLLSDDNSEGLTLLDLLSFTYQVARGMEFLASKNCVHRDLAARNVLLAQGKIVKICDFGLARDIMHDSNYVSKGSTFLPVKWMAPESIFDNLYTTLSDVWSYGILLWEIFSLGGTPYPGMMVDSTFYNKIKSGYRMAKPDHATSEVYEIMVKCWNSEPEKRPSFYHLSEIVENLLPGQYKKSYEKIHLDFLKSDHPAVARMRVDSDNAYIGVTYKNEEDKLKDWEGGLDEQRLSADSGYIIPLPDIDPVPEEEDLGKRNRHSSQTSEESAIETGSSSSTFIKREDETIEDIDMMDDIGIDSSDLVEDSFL
T3 sequence (P10721 544-976 V560G/D816V): as the sequence (P10721 544-976 D820Y) above, with V17G, D273V, Y277D counted along it
T1 sequence (P10721 554-976 V559D/V654A): as the sequence (P10721 554-976 V559D) above, with V101A counted along it

With `Cn1cc(-c2ccc(CNc3cc(-c4cnc5cc(OCCCN6CCCC6)ccn45)ncn3)cc2)cn1` [M4205], the “Biochemical pIC50” value in experiment [1] came out at 7.3; in experiment [2], 9.2; in [5], 7.1; in experiment [7], 9.2. Besides, the IC50 in experiment [3] worked out at 101 nM; in experiment [4] (GIST48B (KIT wildtype), n=2, read-out: Inhibition of viability IC50 ± SD), 16200 ± 10800 nM; in [4] (read-out: viability IC50 in KIT-independent GIST48B cell line), 16000 nM. The kinase inhibition entry in experiment [6] was “more than 80%”. The values for the concentration for 50% growth inhibition (GI50) in experiment [8] and in [9] were 10 nM and 7 nM, respectively.

As a reminder, the IC50 is the concentration at which inhibition is half-maximal. As usually defined, the GI50 is the concentration that inhibits growth by half.
